Experiments:
[1] = molecular target: T1, RyR1 (Mus musculus, UniProt E9PZQ0); assay: Calstabin1 rebinding to RyR1 in isoproterenol treated mice; format: in vivo; details: isoproterenol 0.5 mg/kg/hr plus compound in osmotic pumps, five days; compared with 3.6 mM S36
T1 construct: RyR1 from aged (24 months) mice is oxidized, cysteine-nitrosylated, and depleted of calstabin1; host or cells: mice (in vivo)
Excerpt: Isoproterenol, a beta adrenergic receptor agonist, induces heart failure in mice via overstimulation of the beta adrenergic receptor. Concurrent with this is the activation of PKA, phosphorylation of the RyR2 on the SR, and decreased interaction of calstabin2 (FKBP12.6) to RyR2. A similar cascade of events occurs in skeletal muscle, wherein RyR1 is phosphorylated, leading to decreased binding of calstabin1 (FKBP12) to RyR1.
As described in detail in International publication no. WO2008/064264, the contents of which are incorporated by reference herein, chronic isoproterenol treatment to a wild-type mouse offers a fast and reliable method for inducing changes in RyR biochemistry that could be readily quantified. These changes include increased RyR phosphorylation and concomitant decreased calstabin binding.
C57Bl/6 mice were maintained and studied according to approved protocols. The synthetic beta-adrenergic agonist, isoproterenol (ISO) was obtained from Sigma (165627) and prepared as a 100 mg/ml stock in water. […]
The loaded osmotic pumps were implanted subcutaneously by the following steps. The recipient mouse was anesthetized with 1.5-2% isoflurane in O2 administered at 0.6 L/min, and its weight was then measured and recorded. […]

[2] = Metabolic stability in human hepatic microsomes (Clint, predicted MF %); format: in vitro ADME
Experimental: Compound solubilization: Stock solutions were made in DMSO, and working solutions in water containing 1 mg/ml BSA.
Prediction of metabolic bioavailability: Metabolic bioavailability predictions (MF %) were based on in vitro metabolic stability measurements with hepatic microsomes assuming total absorption. Briefly, unchanged drugs were quantified by LC-MS-MS following incubation (10^−7M) with rat and human hepatic microsomes (0.33 mg protein/ml) after 0, 5, 15, 30 and 60 min of incubation in presence of NADPH (1 mM). Enzymatic reaction was stopped with methanol (v/v) and proteins were precipitated by centrifugation. The in vitro intrinsic clearances (Clint_mic) expressed as ml/min/g protein were the slope (after LN linearization) of the unchanged drug remaining concentration versus incubation time. In vitro Clint were then scaled up to in vivo whole body (vivoClint) using 0.045 mg prot/kg of liver and liver weight of 11 g for the rat and 1.2 kg for Man.

[3] = Metabolic stability in mouse microsomes (% remaining); format: in vitro ADME
Experimental: 0.1M Tris HCl buffer at pH 7.4 containing 5 mM EDTA.
To a 50 mL falcon tube containing 2.79 mL of dilution buffer were added 0.429 mL of NADPH-regenerating soln. A and 0.079 mL of NADPH-regenerating soln. B […]
[…] A 50 mL falcon tube containing 3.32 mL of dilution buffer was prewarmed at 37° C. for 15 min. (at least 10 min.) 0.178 mL of microsome (24.6 mg/mL) were added to the prewarmed dilution buffer. The protein concentration of this microsome preparation was 1.25 mg/mL.
Sample (Test Compound)—Original and Intermediate Stock Solutions:
100 μM intermediate solution of the test compound from the original stock solution were prepared using the dilution buffer. A 5 μM solution was prepared by diluting the 100 μM intermediate solution using dilution buffer.
(The experiments were conducted in 1.5 mL eppendorf micro centrifuge tubes) 0 minutes incubation. Procedure: a. Add 100 μL of prewarmed microsomes b. Add 50 μL of 5 μM solution of the test compound. c. Add 500 μL of cold stop solution (ice cold Methanol) d. Add 100 μL of NADPH cofactor solution to the eppendorf. a. Vortex mix the eppendorf. […]
b. Add 100 μL of NADPH cofactor solution to the eppendorf. c. Add 50 μL of 5 μM solution of the test compound. d. Add 100 μL of prewarmed microsomes e. Incubate the eppendorf at 37° C. 300 rpm for ‘t’ min. on a thermomixer. f. Remove the eppendorf from thermomixer g. Add 500 μL of cold stop solution (ice cold Methanol) h. Vortex mix the eppendorf.
Both the ‘0’ and ‘t’ minutes incubated samples were centrifuged at 15, 000 rcf at 4° C. for 15 min. 500 μL of the supernatant solution was removed and subject it to LC/MS analysis (SIM—Selected Ion Monitoring) […]
Results are expressed as % test compound remaining=(MS Area response of T min sample/MS Area response of ‘0’ min sample)*100. The MS area used is an average of duplicate injections.
Time points=0, 15, 30 and 60 min. for each test compound
2 μM Imipramine—5 min. and 2 μM Imipramine—15 min. incubation was used as a positive control for the rat and mouse liver microsome stability experiments.

T1 sequence (E9PZQ0 whole entry): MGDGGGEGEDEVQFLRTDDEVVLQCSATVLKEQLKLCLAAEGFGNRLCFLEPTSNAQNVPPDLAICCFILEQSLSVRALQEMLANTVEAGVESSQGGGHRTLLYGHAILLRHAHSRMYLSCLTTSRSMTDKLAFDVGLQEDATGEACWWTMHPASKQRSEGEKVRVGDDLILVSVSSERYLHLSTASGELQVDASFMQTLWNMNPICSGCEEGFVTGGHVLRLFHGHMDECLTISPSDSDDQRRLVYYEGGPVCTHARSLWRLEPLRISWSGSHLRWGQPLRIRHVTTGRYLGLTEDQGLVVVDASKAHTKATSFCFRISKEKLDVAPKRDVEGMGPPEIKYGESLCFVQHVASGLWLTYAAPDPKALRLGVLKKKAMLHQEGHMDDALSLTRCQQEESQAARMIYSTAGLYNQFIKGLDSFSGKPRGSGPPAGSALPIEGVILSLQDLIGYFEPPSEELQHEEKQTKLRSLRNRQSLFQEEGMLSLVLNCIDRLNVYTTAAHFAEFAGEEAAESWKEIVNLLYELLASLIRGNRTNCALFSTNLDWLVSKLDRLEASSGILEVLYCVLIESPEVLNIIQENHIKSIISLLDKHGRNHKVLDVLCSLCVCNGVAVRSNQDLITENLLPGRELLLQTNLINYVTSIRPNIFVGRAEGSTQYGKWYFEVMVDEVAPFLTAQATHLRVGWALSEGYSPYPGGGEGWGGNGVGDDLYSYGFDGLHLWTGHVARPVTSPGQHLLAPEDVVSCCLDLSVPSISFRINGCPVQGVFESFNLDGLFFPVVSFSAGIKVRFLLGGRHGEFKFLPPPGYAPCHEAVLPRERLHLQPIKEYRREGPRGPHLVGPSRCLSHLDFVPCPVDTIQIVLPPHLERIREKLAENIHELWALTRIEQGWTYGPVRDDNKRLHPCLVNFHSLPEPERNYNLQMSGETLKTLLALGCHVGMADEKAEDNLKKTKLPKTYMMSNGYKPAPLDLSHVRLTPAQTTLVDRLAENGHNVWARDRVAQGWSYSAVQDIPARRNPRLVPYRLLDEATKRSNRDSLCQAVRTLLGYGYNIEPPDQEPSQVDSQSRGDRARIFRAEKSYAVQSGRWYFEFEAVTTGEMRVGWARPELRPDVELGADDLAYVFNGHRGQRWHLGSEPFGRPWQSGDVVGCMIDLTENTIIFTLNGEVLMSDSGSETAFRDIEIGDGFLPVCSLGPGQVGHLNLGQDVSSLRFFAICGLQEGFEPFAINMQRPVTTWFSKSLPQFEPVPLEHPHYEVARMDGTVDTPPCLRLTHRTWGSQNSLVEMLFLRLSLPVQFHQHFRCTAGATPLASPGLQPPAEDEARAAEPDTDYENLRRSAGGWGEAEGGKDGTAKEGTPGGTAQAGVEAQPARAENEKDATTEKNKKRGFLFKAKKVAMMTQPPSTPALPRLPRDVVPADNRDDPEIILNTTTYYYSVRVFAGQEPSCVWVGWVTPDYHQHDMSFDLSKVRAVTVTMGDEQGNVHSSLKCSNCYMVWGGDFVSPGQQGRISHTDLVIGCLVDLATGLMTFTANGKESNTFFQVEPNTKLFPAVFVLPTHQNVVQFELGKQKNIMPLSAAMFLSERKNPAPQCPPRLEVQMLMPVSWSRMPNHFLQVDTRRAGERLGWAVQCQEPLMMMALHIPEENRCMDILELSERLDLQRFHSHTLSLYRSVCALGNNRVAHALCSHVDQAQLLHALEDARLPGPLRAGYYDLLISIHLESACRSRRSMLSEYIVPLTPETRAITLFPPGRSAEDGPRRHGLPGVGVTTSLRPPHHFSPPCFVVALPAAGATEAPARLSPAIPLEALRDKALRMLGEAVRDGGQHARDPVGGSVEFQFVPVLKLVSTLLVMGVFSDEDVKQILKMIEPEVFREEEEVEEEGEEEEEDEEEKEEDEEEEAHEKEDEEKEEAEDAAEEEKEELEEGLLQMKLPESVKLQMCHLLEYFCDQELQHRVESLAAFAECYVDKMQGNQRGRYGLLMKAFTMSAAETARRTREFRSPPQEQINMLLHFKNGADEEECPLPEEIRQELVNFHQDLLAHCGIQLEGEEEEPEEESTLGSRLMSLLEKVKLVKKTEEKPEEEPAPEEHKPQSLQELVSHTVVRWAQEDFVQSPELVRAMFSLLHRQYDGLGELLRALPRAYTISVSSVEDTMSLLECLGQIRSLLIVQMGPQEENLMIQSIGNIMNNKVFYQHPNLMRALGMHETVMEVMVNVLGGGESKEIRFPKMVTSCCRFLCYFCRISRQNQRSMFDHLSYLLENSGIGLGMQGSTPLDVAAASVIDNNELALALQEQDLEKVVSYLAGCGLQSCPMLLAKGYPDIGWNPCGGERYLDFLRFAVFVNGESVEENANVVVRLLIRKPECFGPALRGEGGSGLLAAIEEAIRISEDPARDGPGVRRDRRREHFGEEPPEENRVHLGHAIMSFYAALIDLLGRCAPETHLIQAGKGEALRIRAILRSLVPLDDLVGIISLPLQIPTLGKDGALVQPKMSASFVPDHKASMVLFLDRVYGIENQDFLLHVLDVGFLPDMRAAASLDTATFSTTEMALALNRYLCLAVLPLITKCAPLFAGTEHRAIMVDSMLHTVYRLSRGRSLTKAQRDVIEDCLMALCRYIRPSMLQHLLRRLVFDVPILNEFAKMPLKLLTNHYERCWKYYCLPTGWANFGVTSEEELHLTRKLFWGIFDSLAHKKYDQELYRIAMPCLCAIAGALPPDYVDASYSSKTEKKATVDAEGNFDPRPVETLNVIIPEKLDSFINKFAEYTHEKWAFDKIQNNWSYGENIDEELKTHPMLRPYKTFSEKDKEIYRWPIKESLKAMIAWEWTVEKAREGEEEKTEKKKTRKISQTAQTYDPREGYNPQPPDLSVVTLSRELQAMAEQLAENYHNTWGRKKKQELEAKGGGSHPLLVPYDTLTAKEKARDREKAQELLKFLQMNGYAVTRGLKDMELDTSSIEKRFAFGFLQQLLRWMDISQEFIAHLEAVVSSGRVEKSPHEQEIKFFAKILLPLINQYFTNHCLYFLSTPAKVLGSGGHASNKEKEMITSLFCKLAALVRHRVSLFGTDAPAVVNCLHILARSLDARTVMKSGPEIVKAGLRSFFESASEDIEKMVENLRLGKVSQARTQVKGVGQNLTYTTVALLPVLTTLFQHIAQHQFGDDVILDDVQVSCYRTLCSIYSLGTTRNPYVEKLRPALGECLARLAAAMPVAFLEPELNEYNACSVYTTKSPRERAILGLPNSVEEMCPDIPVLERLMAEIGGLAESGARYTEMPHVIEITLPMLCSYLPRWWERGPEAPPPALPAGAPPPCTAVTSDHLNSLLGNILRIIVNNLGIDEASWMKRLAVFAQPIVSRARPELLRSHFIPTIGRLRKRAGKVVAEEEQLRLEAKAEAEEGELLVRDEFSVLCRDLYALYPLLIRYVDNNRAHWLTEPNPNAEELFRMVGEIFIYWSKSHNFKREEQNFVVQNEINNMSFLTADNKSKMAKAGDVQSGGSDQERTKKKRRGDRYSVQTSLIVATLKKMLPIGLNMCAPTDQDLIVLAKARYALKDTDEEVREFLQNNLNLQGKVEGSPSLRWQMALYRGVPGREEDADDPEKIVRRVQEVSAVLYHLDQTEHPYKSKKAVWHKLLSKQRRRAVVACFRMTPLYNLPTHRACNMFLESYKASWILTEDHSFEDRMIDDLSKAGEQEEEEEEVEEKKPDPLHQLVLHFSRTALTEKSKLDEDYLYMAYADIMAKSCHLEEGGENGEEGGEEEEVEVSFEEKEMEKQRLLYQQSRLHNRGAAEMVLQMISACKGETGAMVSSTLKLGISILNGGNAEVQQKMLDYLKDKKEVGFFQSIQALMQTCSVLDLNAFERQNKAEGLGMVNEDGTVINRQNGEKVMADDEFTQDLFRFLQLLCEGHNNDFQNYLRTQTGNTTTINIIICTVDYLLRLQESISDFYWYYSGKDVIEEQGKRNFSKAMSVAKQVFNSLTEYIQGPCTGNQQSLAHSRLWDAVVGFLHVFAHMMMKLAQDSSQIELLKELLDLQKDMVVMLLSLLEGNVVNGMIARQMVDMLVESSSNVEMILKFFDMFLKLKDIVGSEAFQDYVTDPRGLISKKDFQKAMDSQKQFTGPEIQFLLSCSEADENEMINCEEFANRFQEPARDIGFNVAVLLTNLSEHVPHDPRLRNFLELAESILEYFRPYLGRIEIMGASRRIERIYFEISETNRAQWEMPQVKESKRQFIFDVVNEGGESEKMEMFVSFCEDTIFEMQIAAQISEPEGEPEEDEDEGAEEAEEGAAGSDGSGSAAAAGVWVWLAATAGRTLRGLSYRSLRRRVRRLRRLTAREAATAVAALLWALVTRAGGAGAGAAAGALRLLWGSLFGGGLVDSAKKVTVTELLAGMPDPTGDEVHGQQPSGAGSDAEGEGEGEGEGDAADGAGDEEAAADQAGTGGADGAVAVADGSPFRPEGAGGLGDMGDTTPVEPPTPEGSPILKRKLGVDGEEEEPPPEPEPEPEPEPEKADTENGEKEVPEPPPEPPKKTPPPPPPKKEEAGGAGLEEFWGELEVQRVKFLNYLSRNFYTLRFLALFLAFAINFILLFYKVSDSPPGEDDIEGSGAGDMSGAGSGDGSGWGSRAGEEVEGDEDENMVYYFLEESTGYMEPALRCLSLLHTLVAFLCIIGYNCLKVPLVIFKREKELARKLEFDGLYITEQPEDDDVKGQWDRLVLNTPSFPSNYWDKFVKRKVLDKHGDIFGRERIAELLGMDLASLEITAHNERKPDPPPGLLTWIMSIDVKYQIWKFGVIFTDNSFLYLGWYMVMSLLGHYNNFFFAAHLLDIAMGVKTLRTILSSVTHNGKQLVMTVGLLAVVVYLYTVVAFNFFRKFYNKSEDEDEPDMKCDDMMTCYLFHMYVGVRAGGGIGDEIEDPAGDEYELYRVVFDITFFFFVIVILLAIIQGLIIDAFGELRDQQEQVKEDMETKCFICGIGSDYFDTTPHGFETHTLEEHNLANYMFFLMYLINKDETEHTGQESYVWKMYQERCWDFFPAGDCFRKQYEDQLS
T1 sequence (P26883 2-108 partner limits assumed): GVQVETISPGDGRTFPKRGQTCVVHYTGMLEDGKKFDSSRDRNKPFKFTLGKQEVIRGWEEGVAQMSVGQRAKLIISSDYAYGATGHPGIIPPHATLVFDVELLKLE

## COc1ccc2c(c1)CN(Cc1ccc(C(=O)O)cc1)CCS2 [Compound 1, 4-((7-Methoxy-2,3-dihydrobenzo[f][1,4]thiazepin-4(5H)-yl)methyl)benzoic acid]
[1]
  levels of calstabin1 bound to RyR1 in skeletal muscle: enhanced levels of calstabin1 bound to RyR1
[2]
  Class (metabolic bioavailability): high
[2]; 10^-7 M, 0.33 mg protein/ml, NADPH
  Clint_mic man (in vitro intrinsic clearance): 9.1 ml/min/gprot
[2]; predicted from Clint assuming total absorption
  MF mic % (metabolic bioavailability): 75%
[3]; 15 min
  % remaining: 99%
[3]; 30 min
  % remaining: 98%
[3]; 1 h
  % remaining: 82%
